Measured values taken from patent publication US20260365653A1, “IRREVERSIBLE MUTEGFR INHIBITORS” (Bayer Aktiengesellschaft, priority 2022, published 2026).

Legend:
[1] = system: BA/F3 (insSVD) cells; assay: Ba/F3-EGFR-insSVD cell survival assay (Cell Titer-Glo); type: cell-based; conditions: Mus musculus, BaF3, 48 h
In short: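 Ba/F3 cells stably expressing retroviral EGFR-insSVD or insSVD T790M, grown without IL-3 on 10 ng/ml EGF, 4000 cells/well. Compound pinned in, 48 h at 37° C. Viability by CellTiter-Glo luminescence.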

[2] = molecular target: T1, mutEGFR (D770_N771insSVD) (Homo sapiens, UniProt P00533, DUP768-770); assay: Exon20-Mutant-EGFR (D770_N771insSVD) kinase assay (TR-FRET); type: biochemical
T1 construct: GST-EGFR #3 (SVD between D770 and N771); made in house; host or cells: Sf9 insect cells (baculovirus)
T1 sequence (P00533 with tags, fused parts or gaps DUP768-770): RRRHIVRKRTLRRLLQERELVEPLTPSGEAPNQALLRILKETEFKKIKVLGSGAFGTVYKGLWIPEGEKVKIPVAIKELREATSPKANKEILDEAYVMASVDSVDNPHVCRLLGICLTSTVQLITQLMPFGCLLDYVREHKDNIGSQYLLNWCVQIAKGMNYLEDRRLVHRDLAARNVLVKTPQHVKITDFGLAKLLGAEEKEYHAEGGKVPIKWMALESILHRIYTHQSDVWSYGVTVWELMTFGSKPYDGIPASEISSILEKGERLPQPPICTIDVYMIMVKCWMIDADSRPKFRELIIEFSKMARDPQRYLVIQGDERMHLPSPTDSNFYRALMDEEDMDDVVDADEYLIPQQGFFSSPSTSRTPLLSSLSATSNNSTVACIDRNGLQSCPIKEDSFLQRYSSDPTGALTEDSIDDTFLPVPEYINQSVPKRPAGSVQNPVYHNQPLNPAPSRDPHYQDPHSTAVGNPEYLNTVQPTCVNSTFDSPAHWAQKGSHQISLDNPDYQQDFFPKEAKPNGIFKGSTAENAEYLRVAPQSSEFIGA

[3] = molecular target: T2, mutEGFR (D770_N771insNPG, T790) (Homo sapiens, UniProt P00533, INS770NPG/T790M); assay: mutEGFR (D770_N771insNPG, T790) kinase assay; type: biochemical
T2 construct: exact insNPG construct not described; in-house EGFR proteins were N-terminal GST fusions from baculovirus/insect cells (borders R669-A1210 given only for WT, insSVD, insASV)
T2 sequence (P00533 with tags, fused parts or gaps INS770NPG/T790M limits assumed): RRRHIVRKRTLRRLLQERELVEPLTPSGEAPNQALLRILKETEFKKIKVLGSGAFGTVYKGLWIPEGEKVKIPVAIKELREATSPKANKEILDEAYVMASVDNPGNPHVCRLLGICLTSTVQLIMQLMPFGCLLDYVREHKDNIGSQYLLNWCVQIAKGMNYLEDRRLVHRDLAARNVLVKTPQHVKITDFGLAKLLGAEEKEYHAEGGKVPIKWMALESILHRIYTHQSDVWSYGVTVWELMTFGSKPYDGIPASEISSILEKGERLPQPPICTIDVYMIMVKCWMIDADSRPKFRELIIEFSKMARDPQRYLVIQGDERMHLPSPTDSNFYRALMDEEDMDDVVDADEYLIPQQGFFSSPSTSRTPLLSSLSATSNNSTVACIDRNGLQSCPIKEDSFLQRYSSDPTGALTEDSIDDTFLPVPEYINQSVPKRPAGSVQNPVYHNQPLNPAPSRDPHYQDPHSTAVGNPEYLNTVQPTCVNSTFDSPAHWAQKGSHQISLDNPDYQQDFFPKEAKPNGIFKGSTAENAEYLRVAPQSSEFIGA
From the text: The different EGFR proteins used in the biochemical kinase activity inhibition assays were generated inhouse by expression in insect cells using Baculo Virus system and subsequent purification as described in the following paragraphs.
The cDNAs encoding the various protein sequences from human EGFR human (P00533) were optimized for expression in eukaryotic cells and synthesized by the GeneArt Technology at Life Technologies.

[4] = Table 3a, cell survival, Cell Titer-Glo, with 10 ng/ml EGF, without IL-3
[5] = mutEGFR (D770_N771insSVD) kinase assay IC50, Table 2a, D770_N771insSVD, 2 mM ATP
[6] = mutEGFR (D770_N771insSVD) kinase assay IC50, Table 2b (from US Priority Patent Application), mutEGFR D770_N771insSVD
[7] = Table 2b (from US Priority Patent Application), mutEGFR D770_N771insNPG

SMILES	IC50 [1, 4]	IC50 ([1]; Table 3b, Ba/F3 EGFR-insSVD)	IC50 [2, 5]	IC50 [2, 6]	IC50 ([3]; Table 2a, D770_N771insNPG)	IC50 [3, 7]
C=CC(=O)N1CCn2nc(-c3cccc(F)c3)c(-c3ccncc3)c2C1 [Example 4, 1-[2-(3-fluorophenyl)-3-(pyridin-4-yl)-6,7-dihydropyrazolo[1,5-a]pyrazin-5(4H)-yl]prop-2-en-1-one]	50.5 nM	50.5 nM	1.45 nM	1.45 nM	1.47 nM	1.47 nM
CN(C)C/C=C/C(=O)N1CCn2nc(-c3ccc(F)cc3)c(-c3ccnc(NC(=O)C4CC4)c3)c2C1 [Example 8, N-(4-{5-[(2E)-4-(dimethylamino)but-2-enoyl]-2-(4-fluorophenyl)-4,5,6,7-tetrahydropyrazolo[1,5-a]pyrazin-3-yl}pyridin-2-yl)cyclopropanecarboxamide]	20.4 nM	20.4 nM	0.393 nM	0.393 nM	0.765 nM	0.765 nM
O=C(Nc1cc(-c2c(-c3ccc(F)cc3)nn3c2CN(C(=O)C2CO2)CC3)ccn1)C1CC1 (stereo not shown) [Example 9, N-{4-[2-(4-fluorophenyl)-5-(oxirane-2-carbonyl)-4,5,6,7-tetrahydropyrazolo[1,5-a]pyrazin-3-yl]pyridin-2-yl}cyclopropanecarboxamide]	2040 nM	2040 nM	64.5 nM	64.5 nM	104 nM	104 nM
C=CC(=O)N1CCn2nc(-c3ccc(F)cc3)c(-c3ccnc(OC)c3)c2C1 [Example 11, 1-[2-(4-fluorophenyl)-3-(2-methoxypyridin-4-yl)-6,7-dihydropyrazolo[1,5-a]pyrazin-5(4H)-yl]prop-2-en-1-one]	1560 nM	1560 nM	29.6 nM	29.6 nM	43.8 nM	43.8 nM
C=CC(=O)N1CCn2nc(-c3ccc(F)cc3)c(-c3ccncc3OC)c2C1 [Example 12, 1-[2-(4-fluorophenyl)-3-(3-methoxypyridin-4-yl)-6,7-dihydropyrazolo[1,5-a]pyrazin-5(4H)-yl]prop-2-en-1-one]	359 nM	359 nM	37.1 nM	37.1 nM	84.2 nM	84.2 nM
C#CC(=O)N1CCn2nc(-c3ccc(F)cc3)c(-c3ccncc3)c2C1 [Example 13, 1-[2-(4-fluorophenyl)-3-(pyridin-4-yl)-6,7-dihydropyrazolo[1,5-a]pyrazin-5(4H)-yl]prop-2-yn-1-one]	909 nM	909 nM	0.807 nM	0.807 nM	1.26 nM	1.26 nM
CN(C)C/C=C/C(=O)N1CCn2nc(-c3ccc(F)cc3)c(-c3ccncc3)c2C1 [Example 15, (2E)-4-(dimethylamino)-1-[2-(4-fluorophenyl)-3-(pyridin-4-yl)-6,7-dihydropyrazolo[1,5-a]pyrazin-5(4H)-yl]but-2-en-1-one]	86.9 nM	86.9 nM	0.729 nM	0.729 nM	1.08 nM	1.08 nM
CC#CC(=O)N1CCn2nc(-c3ccc(F)cc3)c(-c3ccncc3)c2C1 [Example 16, 1-[2-(4-fluorophenyl)-3-(pyridin-4-yl)-6,7-dihydropyrazolo[1,5-a]pyrazin-5(4H)-yl]but-2-yn-1-one]	774 nM	774 nM	55.2 nM	55.2 nM	76.6 nM	76.6 nM
C=C(F)C(=O)N1CCn2nc(-c3ccc(F)cc3)c(-c3ccncc3)c2C1 [Example 17, 2-fluoro-1-[2-(4-fluorophenyl)-3-(pyridin-4-yl)-6,7-dihydropyrazolo[1,5-a]pyrazin-5(4H)-yl]prop-2-en-1-one]	1150 nM	1150 nM	55.7 nM	55.7 nM	85.8 nM	85.8 nM
C=CC(=O)N1CCn2nc(Nc3ccc(F)cc3)c(-c3ccncc3)c2C1 [Example 19, 1-[2-(4-fluoroanilino)-3-(pyridin-4-yl)-6,7-dihydropyrazolo[1,5-a]pyrazin-5(4H)-yl]prop-2-en-1-one]	823 nM	823 nM	25.9 nM	25.9 nM	210 nM	–
C=CC(=O)N1CCn2nc(-c3ccc(F)cc3)c(-c3ccnc(Nc4ccccc4)c3)c2C1 [Example 20, 1-[3-(2-anilinopyridin-4-yl)-2-(4-fluorophenyl)-6,7-dihydropyrazolo[1,5-a]pyrazin-5(4H)-yl]prop-2-en-1-one]	617 nM	617 nM	3.54 nM	3.54 nM	9.13 nM	–
